# Read-outs that look alike come from different tables or passages of the source.
# Experiments:
# [1] = tested on: patients with atherosclerosis undergoing PCI
# Procedure: The protocol called for aspirin (75 to 325 mg) to be administered to all patients. […] The choice of a periprocedural anticoagulant (bivalirudin, unfractionated heparin, low-molecular-weight heparin, or fondaparinux) was also at the discretion of the investigator. Glycoprotein IIb/IIIa inhibitors were allowed only as rescue therapy during PCI to treat new or persistent thrombus formation, slow or no reflow, side-branch compromise, dissection, or distal embolization. The investigator at the site determined the protocol for management of the arterial sheath.
# The inclusion criteria for the trial were men or nonpregnant women, 18 years of age or older with coronary atherosclerosis who required PCI for stable angina, a non-ST-segment elevation acute coronary syndrome, or ST-segment elevation myocardial infarction (STEMI). Patients were required to provide written informed consent.
# Major exclusion criteria were receipt of a P2Y12 inhibitor or abciximab at any time in the 7 days before randomization and receipt of eptifibatide or tirofiban or fibrinolytic therapy in the 12 hours before randomization.
# The primary efficacy end point was the composite rate of death from any cause, myocardial infarction, IDR, or stent thrombosis in the 48 hours after randomization in the modified intention-to-treat population (which comprised patients who actually underwent PCI and received the study drug). […] The key secondary end point was the incidence of stent thrombosis at 48 hours. This end point included definite stent thrombosis, defined according to the criteria of the Academic Research Consortium, or intraprocedural stent thrombosis, which was assessed, with group assignments concealed, at an angiographic core laboratory (Cardiovascular Research Foundation). Intraprocedural stent thrombosis was defined as any new or worsened thrombus related to the stent procedure that was confirmed angiographically. Events of death, myocardial infarction, IDR, and stent thrombosis that occurred during the first 30 days after randomization were adjudicated by the clinical events committee at the Duke Clinical Research Institute. The study adhered to the universal definition of myocardial infarction for myocardial infarction unrelated to PCI but expanded on the definition of PCI-related myocardial infarction.
# The numbers and percentages of patients within each analysis population (modified intention-to-treat, intention-to-treat, and safety) were summarized according to treatment group. The primary efficacy analysis of the rate of the composite end point of death from any cause, myocardial infarction, IDR, or stent thrombosis (with all events adjudicated by the clinical events committee) in the 48 hours after randomization was conducted in the modified intention-to-treat population. The primary safety analysis was conducted in the safety population, which comprised all patients who underwent randomization and received at least one dose of the study drug; patients were classified according to the actual treatment received. All calculations and statistical analyses were performed with the use of SAS software, version 9.2.
# platelets = assay: Example 4: platelet activation measured by flow cytometry; format: in vivo, human; settings: P-selectin expression, 1 μM ADP
# Procedure: The study involved 12 patients who met the criteria of being 18-75 years of age, having coronary artery disease (CAD) documented by a previous MI or coronary revascularization, and taking 81 mg of aspirin daily. […] Prohibited concomitant medications included strong and potent CYP3A inhibitors, simvastatin and lovastatin at doses more than 40 mg/day, omeprazole or esomeprazole, and digoxin. Use of non-steroidal anti-inflammatory agents was discouraged during study participation but not prohibited.
# Each patient was administered a 30 μg/kg bolus of cangrelor followed immediately by a 2 hr infusion at a rate of 4.0 μg/kg/min. A loading dose of ticagrelor (180 mg) was given after 0.5 hr or 1.25 hr (n=6 for each). Blood for pharmacodynamic platelet function studies was taken after 0.5 or 1.25 hr (corresponding to the time of ticagrelor load, n=6 for each), and then at 1.75, 2, 2.25, 2.5, 2.75, 3, 4, and 5.25 hr. Patients were assigned randomly to receive either 6 (n=6) or 7 (n=6) doses of ticagrelor to be taken every 12 hours following the discontinuation of the infusion of cangrelor. On study day 5, each patient was administered a 30 μg/kg bolus of cangrelor followed immediately by a 2 hr infusion at a rate of 4.0 μg/kg/min. Blood for pharmacodynamic assessment was taken after 1 and 2 hr. Adverse events were queried throughout study participation that ended with a telephone interview performed on study day 10-12.
# Pharmacodynamic assessment included light transmission aggregometry (LTA), VerifyNow® P2Y12 assay, vasodilator-stimulated phosphoprotein (VASP) index, and platelet activation measured with the use of flow cytometry. Assessment of LTA, VerifyNow®, and platelet activation with the use of flow cytometry was performed within 30 min of blood being taken. In the case of flow cytometry, samples were processed to fixation and then batched for analysis. For VASP, index samples were batched and processed as recommended by the vendor within 2 h of blood being taken. This approach limited the time from fixation of VASP index to flow analysis to less than 1 h.
# LTA induced by 5 μM and 20 μM adenosine diphosphate (ADP) was quantified ex vivo (i.e. in non-adjusted platelet rich plasma). Platelet-poor plasma was set as 100% aggregation, and both maximal (peak) and terminal (at 300 s) aggregation were measured with a PAP4 aggregometer (BioData, Horsham, Pa.). VerifyNow® P2Y12 assay (Accumetrics Inc, San Diego, Calif.) that measures the effects of drugs on the P2Y12 receptor by activating platelets with prostaglandin El in addition to ADP was used in accordance with the instructions provided by the manufacturer. Platelet reactivity was expressed in P2Y12 reaction units (PRU). Activation of platelets was identified with the use of flow cytometry as previously described.^17. And to determine the VASP index, a commercially available kit (Diagnostica Stago, Inc, Parsippany NJ) was used. ^17 Schneider D J, Sobel B E. Streamlining the design of promising clinical trials: in-vitro testing of antithrombotic regimens and multiple agonists of platelet activation. Coron Artery Dis. 2009; 20:175-8.
# [2] = 48 hours, ITT, Cangrelor vs Clopidogrel
# [3] = 48 hours, ITT, rate in parentheses
# [4] = 48 hours, modified intention-to-treat, Cangrelor vs Clopidogrel
# [5] = 30 days, cangrelor vs clopidogrel
# [6] = 30 days, modified intention-to-treat population
# [7] = 30 days, modified intention-to-treat, Cangrelor vs Clopidogrel
# [8] = Study Day 1, 1.75 h, Ticagrelor at 0.5 hr
# [9] = Study Day 1, 1.75 h, Ticagrelor at 1.25 hr
# [10] = Study Day 1, 2.0 h, Ticagrelor at 0.5 hr
# [11] = Study Day 1, 2.0 h, Ticagrelor at 1.25 hr
# [12] = Study Day 1, reference 0.5/1.25 h, All
# [13] = Study Day 1, reference 0.5/1.25 h, Ticagrelor at 0.5 hr
# [14] = Study Day 1, reference 0.5/1.25 h, Ticagrelor at 1.25 hr
# [15] = Study Day 5, 1.0 h, Ticagrelor 6 doses
# [16] = Study Day 5, 1.0 h, Ticagrelor 7 doses
# [17] = Study Day 5, 2.0 h, Ticagrelor 6 doses
# [18] = Study Day 5, 2.0 h, Ticagrelor 7 doses
structure (smiles),measurement,setting,value
"CSCCNc1nc(SCCC(F)(F)F)nc2c1ncn2[C@@H]1O[C@H](COP(=O)(O)OP(=O)(O)C(Cl)(Cl)P(=O)(O)O)[C@@H](O)[C@H]1O [Cangrelor, cangrelor]","odds ratio, primary end point",[1]; 300-mg loading dose of clopidogrel,0.84
same,"odds ratio, primary end point",[1]; 600-mg loading dose of clopidogrel,0.77
same,number needed to treat to prevent one primary end-point event,[1]; 48 hours,84
same,rate of stent thrombosis (key secondary efficacy end point),[1]; 48 hours,0.8%
same,Death OR,[1]; [2],0.95
same,Death/MI OR,[1]; [2],0.80
same,Death/MI/IDR OR,[1]; [2],0.80
same,Death/MI/IDR/ST OR,[1]; [2],0.79
same,Death/MI/IDR/ST/GUSTO Severe Bleeding (NACE) OR,[1]; [2],0.80
same,Death/MI/ST OR,[1]; [2],0.79
same,Death/Q-wave MI/IDR OR,[1]; [2],0.77
same,Death/ST OR,[1]; [2],0.67
same,IDR OR,[1]; [2],0.76
same,MI OR,[1]; [2],0.80
same,Q-wave MI OR,[1]; [2],0.61
same,Stent thrombosis OR,[1]; [2],0.62
same,Death,"[1]; 48 hours, ITT, n/N",20/5573
same,Death/MI,"[1]; 48 hours, ITT, n/N",222/5573
same,Death/MI/IDR,"[1]; 48 hours, ITT, n/N",233/5573
same,Death/MI/IDR/ST,"[1]; 48 hours, ITT, n/N",260/5573
same,"Death/MI/IDR/ST/GUSTO Severe Bleeding (Net Adverse Clinical Events, NACE)","[1]; 48 hours, ITT, n/N",267/5573
same,Death/MI/ST,"[1]; 48 hours, ITT, n/N",251/5573
same,Death/Q-wave MI/IDR,"[1]; 48 hours, ITT, n/N",52/5573
same,Death/ST,"[1]; 48 hours, ITT, n/N",61/5573
same,IDR,"[1]; 48 hours, ITT, n/N",29/5573
same,MI,"[1]; 48 hours, ITT, n/N",207/5573
same,Q-wave MI,"[1]; 48 hours, ITT, n/N",11/5573
same,Stent thrombosis,"[1]; 48 hours, ITT, n/N",46/5573
same,Death,[1]; [3],(0.4)
same,Death/MI,[1]; [3],(4.0)
same,Death/MI/IDR,[1]; [3],(4.2)
same,Death/MI/IDR/ST,[1]; [3],(4.7)
same,"Death/MI/IDR/ST/GUSTO Severe Bleeding (Net Adverse Clinical Events, NACE)",[1]; [3],(4.8)
same,Death/MI/ST,[1]; [3],(4.5)
same,Death/Q-wave MI/IDR,[1]; [3],(0.9)
same,Death/ST,[1]; [3],(1.1)
same,IDR,[1]; [3],(0.5)
same,MI,[1]; [3],(3.7)
same,Q-wave MI,[1]; [3],(0.2)
same,Stent thrombosis,[1]; [3],(0.8)
same,"odds ratio, stent thrombosis","[1]; 48 hours, cangrelor vs clopidogrel",0.62
same,"odds ratio, primary composite efficacy end point","[1]; 48 hours, crude analysis, cangrelor vs clopidogrel",0.79
same,"odds ratio, primary composite efficacy end point","[1]; 48 hours, logistic regression adjusted for baseline status and clopidogrel loading dose, cangrelor vs clopidogrel",0.78
same,"rate of primary composite efficacy end point (death from any cause, myocardial infarction, IDR, or stent thrombosis)","[1]; 48 hours, modified intention-to-treat",4.7%
same,"Death from any cause, Odds Ratio (95% CI)",[1]; [4],1.00 (0.52-1.92)
same,"Death from cardiovascular causes, Odds Ratio (95% CI)",[1]; [4],1.00 (0.52-1.92)
same,"Death or stent thrombosis, Odds Ratio (95% CI)",[1]; [4],0.67 (0.48-0.94)
same,"Death, Q-wave myocardial infarction, or ischemia-driven revascularization, Odds Ratio (95% CI)",[1]; [4],0.76 (0.53-1.11)
same,Death/MI OR (95% CI),[1]; [4],"0.80 (0.67, 0.96)"
same,Death/MI/Definite ST OR (95% CI),[1]; [4],"0.80 (0.66, 0.95)"
same,Death/MI/IDR OR (95% CI),[1]; [4],"0.80 (0.67, 0.95)"
same,Death/MI/IDR/Definite ST OR (95% CI),[1]; [4],"0.80 (0.67, 0.95)"
same,Death/MI/ST OR (95% CI),[1]; [4],"0.79 (0.66, 0.94)"
same,Definite ST OR (95% CI),[1]; [4],"0.54 (0.27, 1.10)"
same,"Ischemia-driven revascularization, Odds Ratio (95% CI)",[1]; [4],0.74 (0.45-1.20)
same,"Key secondary end point: stent thrombosis, Odds Ratio (95% CI)",[1]; [4],0.62 (0.43-0.90)
same,"Myocardial infarction, Odds Ratio (95% CI)",[1]; [4],0.80 (0.67-0.97)
same,"Net adverse clinical events, Odds Ratio (95% CI)",[1]; [4],0.80 (0.68-0.94)
same,"Q-wave myocardial infarction, Odds Ratio (95% CI)",[1]; [4],0.61 (0.29-1.29)
same,"Primary end point: death from any cause, myocardial infarction, ischemia-driven revascularization, or stent thrombosis, Odds Ratio (95% CI)","[1]; 48 hours, modified intention-to-treat, Cangrelor vs Clopidogrel, logistic regression adjusted for baseline status and clopidogrel loading dose",0.78 (0.66-0.93)
same,net rate of adverse clinical events (primary efficacy plus primary safety end point),"[1]; 48 hours, post hoc",4.8%
same,"odds ratio, net adverse clinical events","[1]; 48 hours, post hoc, cangrelor vs clopidogrel",0.80
same,Stent thrombosis,[1]; 30 days,1.3%
same,rate of the composite efficacy end point,[1]; 30 days,6.0%
same,"odds ratio, composite efficacy end point",[1]; [5],0.85
same,"odds ratio, stent thrombosis",[1]; [5],0.68
same,Death from any cause,[1]; [6],(1.1) percent
same,"Death from any cause, myocardial infarction, ischemia-driven revascularization, or stent thrombosis",[1]; [6],(6.0) percent
same,Death from cardiovascular causes,[1]; [6],(0.9) percent
same,"Death from any cause, Odds Ratio",[1]; [7],1.09
same,"Death from cardiovascular causes, Odds Ratio",[1]; [7],1.04
same,"Ischemia-driven revascularization, Odds Ratio",[1]; [7],0.85
same,"Myocardial infarction, Odds Ratio",[1]; [7],0.82
same,"Q-wave myocardial infarction, Odds Ratio",[1]; [7],0.63
same,"Stent thrombosis, Odds Ratio",[1]; [7],0.68
same,"Death from any cause, myocardial infarction, ischemia-driven revascularization, or stent thrombosis, Odds Ratio","[1]; 30 days, modified intention-to-treat, Cangrelor vs Clopidogrel, adjusted logistic regression",0.85
same,"odds ratio, intraprocedural stent thrombosis",[1]; cangrelor vs clopidogrel,0.65
same,"odds ratio, procedural complications",[1]; cangrelor vs clopidogrel,0.74
same,"odds ratio, rescue therapy with a glycoprotein IIb/IIIa inhibitor",[1]; cangrelor vs clopidogrel,0.65
same,odds of an ischemic event lower than with clopidogrel,[1]; in vivo,22%
same,odds of stent thrombosis lower than with clopidogrel,[1]; in vivo,38%
same,rate of intraprocedural stent thrombosis,[1]; in vivo,0.6%
same,rate of procedural complications,[1]; in vivo,3.4%
same,use of rescue therapy with a glycoprotein IIb/IIIa inhibitor,[1]; in vivo,2.3%
same,"odds ratio, primary end point",[1]; infusion for 129 minutes or less,0.85
same,"odds ratio, primary end point",[1]; infusion for more than 129 minutes,0.72
same,"odds ratio, primary end point",[1]; patients who received the loading dose during or after PCI,0.79
same,"odds ratio, primary end point",[1]; patients who received the loading dose immediately before PCI,0.80
same,Flow Cytometry IPR,"platelets; Study Day 1, 1.75 h, All",94 ± 5
same,Flow Cytometry PR,"platelets; Study Day 1, 1.75 h, All",2.5 ± 1
same,Flow Cytometry IPR,platelets; [8],96 ± 2
same,Flow Cytometry PR,platelets; [8],2 ± 0.6
same,Flow Cytometry IPR,platelets; [9],92 ± 7
same,Flow Cytometry PR,platelets; [9],3 ± 1.1
same,Flow Cytometry IPR,"platelets; Study Day 1, 2.0 h, All",89 ± 30
same,Flow Cytometry PR,"platelets; Study Day 1, 2.0 h, All",3.8 ± 4.5
same,Flow Cytometry IPR,platelets; [10],96 ± 2
same,Flow Cytometry PR,platelets; [10],2.3 ± 0.8
same,Flow Cytometry IPR,platelets; [11],83 ± 28
same,Flow Cytometry PR,platelets; [11],5.3 ± 6.3
same,Flow Cytometry IPR,platelets; [12],94 ± 4
same,Flow Cytometry PR,platelets; [12],2.8 ± 1.2
same,Flow Cytometry IPR,platelets; [13],94 ± 5
same,Flow Cytometry PR,platelets; [13],3 ± 1.7
same,Flow Cytometry IPR,platelets; [14],94 ± 3
same,Flow Cytometry PR,platelets; [14],1.5 ± 0.5
same,Flow Cytometry IPR,"platelets; Study Day 5, 1.0 h, All",92 ± 4
same,Flow Cytometry PR,"platelets; Study Day 5, 1.0 h, All",4.1 ± 2.7
same,Flow Cytometry IPR,platelets; [15],91 ± 3
same,Flow Cytometry PR,platelets; [15],3.5 ± 1.4
same,Flow Cytometry IPR,platelets; [16],93 ± 5
same,Flow Cytometry PR,platelets; [16],4.7 ± 3.6
same,Flow Cytometry IPR,"platelets; Study Day 5, 2.0 h, All",95 ± 3
same,Flow Cytometry PR,"platelets; Study Day 5, 2.0 h, All",2.8 ± 1.3
same,Flow Cytometry IPR,platelets; [17],93 ± 3
same,Flow Cytometry PR,platelets; [17],2.7 ± 1.2
same,Flow Cytometry IPR,platelets; [18],96 ± 2
same,Flow Cytometry PR,platelets; [18],2.8 ± 1.5
